Common to all, as to format: cell-based
Test [1] deals with Occludin and Zonula Occludens in Caco-2 cells. In words: Fluorescence immunolabeling of Occludin and Zonula Occludens in Caco-2 cells after damage induction. Conditions: pretreatment 60 h without glutamine, then 60 mM ethanol 4 h. On the procedure:
As it can be seen by FIG. 1, the damage induced an increase in permeability. The same cells without damage induction (NC) and with damage induction (PC), as indicated above, were further evaluated by fluorescence immunolabeling of Occludina and Zonula Occludens (proteins present in the intestinal membrane intracellular junctions).
(§1) According to the experimental protocol, to evaluate the efficacy of the composition of the invention in damage prevention, sodium butyrate (2 mM concentration) and lactoferrin (400 μg/ml concentration), either alone or in combination, were applied on Caco-2 cells during stress induced by absence of glutamine, increasing the time of said deprivation, with respect to the conditions tested during the development of the model, and therefore of stress induction, to 60 hours, to make more evident differences in cells behavior in the different treatment situations. At the end of 60 hours, the products were removed, and damage was induced for 4 h with 60 mM ethanol. The parameters were evaluated at the end.
To confirm the observed behavior, an evaluation using fluorescence immunolabeling of Occludin and Zonula Occludens was also performed.

Test [2] deals with Caco-2 cells. Nature of the test: Lucifer Yellow (LY) assay of paracellular permeability in Caco-2 intestinal damage model. On the procedure: A protocol was developed based on Caco-2 cell inserts model (CACOREADY™ cells, lot no. 24 676 101716 and no. 24 680 111416, Readycell manufacturer) consisting in two steps:
1. Induction of epithelial damage (40 h incubation in glutamine free medium followed by stress induced by 60 mM ethanol for 4 h)
2. Evaluation of the single products first, and then applied in combination during stress induced by the absence of glutamine (60 h), and with subsequent stress induced by ethanol, to evaluate the efficacy in preventing damage. […]
Cells without damage induction (NC=without damage) and with damage induction (PC) were evaluated with the Lucifer Yellow (LY) assay, which verifies the integrity of the cellular junctions in presence of the test substance. […]
as §1, with “At the end of 60 hours, the products were removed, and damage was induced for 4 h with 60 mM ethanol.” left out, “end. […]” for “end.”

Test [3] has as its system Caco-2 cells. Nature of the test: Electron Microscopy (SEM) of microvilli of Caco-2 cells after damage induction. As to conditions: pretreatment 60 h without glutamine, then 60 mM ethanol 4 h, 750x-10000x. On the procedure:
The same cells without damage induction (NC) and with damage induction (PC), as indicated above, were finally evaluated by Electron Microscopy (SEM) at different magnifications.
as §1
The same cells were finally evaluated also by Electron Microscopy SEM, at various magnifications.

Results on one compound are retold here after patent US20210077592A1, “COMPOSITION TO PREVENT INTESTINAL DAMAGE” (FUSION FARM S.R.L. SEMPLIFICATA, priority 2017, published 2021).

Regarding `CCCC(=O)[O-].[Na+]` [sodium butyrate, reference compound], in test [1], the “fluorescence intensity / expression of tight junction proteins (Occludin, Zonula Occludens), result in words” value was “lower expression of the tight junctions' proteins”. Further, in the test with Caco-2 cells [2] (2 mM sodium butyrate alone during 60 h glutamine deprivation, then 60 mM ethanol 4 h), the “increase in LY flux (permeability)” value was “over 51%”. For the same compound, the “permeability (LY), result in words” value in the test with Caco-2 cells [2] (treatment at the same time as damage induction) is “significant increase in permeability”. Further, the “effect on microvilli / villous atrophy by SEM, result in words” value in the test on Caco-2 cells [3] is “did not have any effect in combating the partial villous atrophy”.
